# Laboratory results from patent US9090549B2, “1,4-naphthoquinones derivatives and therapeutic use thereof” (CENTRE NATIONAL DE LA RECHERCHE SCIENTIFIQUE (C.N.R.S.), priority 2008, dated 2015).
# Like-named read-outs stand apart in the source and are kept apart here.
# Columns and labels:
# [1] = molecular target: T1, human glutathione reductase (hGR) (Homo sapiens, UniProt P00390); test: Inhibition of human glutathione reductase under steady-state conditions; format: biochemical; details: pH 6.9, 25° C., 1 mM GSSG, 100 μM NADPH
# T1 sequence (P00390 44-522): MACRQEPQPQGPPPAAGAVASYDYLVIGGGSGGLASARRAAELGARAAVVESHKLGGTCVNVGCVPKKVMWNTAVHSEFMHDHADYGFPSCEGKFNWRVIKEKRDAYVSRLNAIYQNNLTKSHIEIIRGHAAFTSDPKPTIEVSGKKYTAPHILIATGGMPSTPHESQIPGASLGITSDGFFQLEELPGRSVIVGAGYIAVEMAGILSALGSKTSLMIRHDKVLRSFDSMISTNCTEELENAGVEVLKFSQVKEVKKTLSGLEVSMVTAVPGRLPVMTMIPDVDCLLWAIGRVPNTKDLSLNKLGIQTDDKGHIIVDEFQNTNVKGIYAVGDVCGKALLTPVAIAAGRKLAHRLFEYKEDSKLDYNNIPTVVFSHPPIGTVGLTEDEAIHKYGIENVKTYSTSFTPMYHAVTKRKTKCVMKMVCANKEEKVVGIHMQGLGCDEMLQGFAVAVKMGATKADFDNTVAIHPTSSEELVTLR
# [2] = molecular target: T2, P. falciparum glutathione reductase (PfGR) (Plasmodium falciparum, UniProt Q94655); test: 1,4-Naphthoquinone reductase activity of P. falciparum glutathione reductase; format: biochemical; details: with respect to menadione
# Protocol: The reduction assay mixture consisted of 100 mM potassium phosphate buffer pH 6.9, 200 mM KCl, 1 mM EDTA and 100 μM NADPH in a total volume of 1 mL. 1,4-naphthoquinone reductase activity was determined by recording the initial velocities in the presence of increasing naphthoquinone concentrations (0-300 μM). […] For the determination of KM and Vmax values, the steady-state rates were fitted by using nonlinear regression analysis software (Kaleidagraph) to the Michaelis-Menten equation. From these values, the turnover number kcat and the catalytic efficiency kcat/KM were calculated.
# [3] = molecular target: T2, P. falciparum glutathione reductase (PfGR); test: biochemical
# Protocol: The standard assay was conducted at 25° C. in a 1 mL-cuvette. The assay mixture contained 100 μM NADPH and 1 mM GSSG in GR buffer (100 mM potassium phosphate buffer, 200 mM KCl, 1 mM EDTA, pH 6.9). […] Inhibitor stock solutions were prepared in 100% DMSO. 1% DMSO concentration was kept constant in the assay cuvette. The reaction was started by adding enzyme (8 mU human GR, 6.5 mU P. falciparum GR) and initial rates of NADPH oxidation were monitored at 340 nm (ε340 nm=6.22 mM^−1 cm^−1).
# [4] = system: P. falciparum multidrug-resistant strain Dd2; test: Dd2 growth inhibition, 3H-hypoxanthine assay; format: cell-based, Plasmodium falciparum; details: Plasmodium falciparum, DD2, read-out: IC50 against Dd2
# Protocol: The IC50 was tested by standard in vitro antiproliferation assays (Desjardins et al, 1979 Antimicrob. Agents Chemother 1979, 16, 710-718). Infected erythrocytes in ring stage (0.5% parasitemia, 2.5% hematocrit) in 96-well plates were exposed to the compounds for 48 h and then to radioactive hypoxanthine for 24 h. The amount of radioactivity in precipitable material served as an index of cell proliferation.
# [5] = system: P. falciparum chloroquine sensitive strain 3D7; test: 3D7 growth inhibition, 3H-hypoxanthine assay; format: cell-based, Plasmodium falciparum; details: read-out: IC50 against Pf 3D7
# Protocol: (§1) The IC50 values against Pf-GHA and MRC-5 were determined by using the less sensitive colorimetric NBT-based lactate dehydrogenase assay (Makler et al, Am. J. Trop. Med. Hyg. 1993, 48 (6), 739-741) based on redox-reactions.
# (§2) Parasite Cultures. […] P. falciparum in vitro culture was carried out using standard protocols (Trager et al, 1976 Science, 193, 673-675) with modifications. Briefly, parasites were maintained in tissue culture flasks in human A Rh+ erythrocytes at 5% hematocrit in RPMI 1640 supplemented with 25 mM HEPES, 24 mM NaHCO3, 0.2% (w/v) glucose, 0.03% L-glutamine, 150 μM hypoxanthine, and 0.5% Albumax II® (Invitrogen) in a 5% CO2/air mixture at 37° C., and the medium was changed daily.
# (§3) In Vitro Antiparasitic Bioassays. Drug susceptibility of P. falciparum was studied using a modified method (Cameron et al, 2004 J. Biol. Chem. 279, 31429-31439) of the protocol described previously (Desjardins et al, 1979). All assays included CQ diphosphate (Sigma, UK) as a standard and control wells with untreated infected and uninfected erythrocytes. IC50 values were derived by sigmoidal regression analysis (Microsoft Xlfit™).
# [6] = system: P. falciparum chloroquine resistant strain K1; test: K1 growth inhibition, 3H-hypoxanthine assay; format: cell-based, Plasmodium falciparum; details: read-out: IC50 against Pf K1
# Protocol: as §1, §2, §3
# Pf-GHA = Pf-GHA growth inhibition, colorimetric NBT-based lactate dehydrogenase assay; format: cell-based; details: Plasmodium falciparum, 72 h, read-out: IC50 against Pf-GHA
# Protocol: as §1
# In Vitro Antiparasitic Bioassays. The strain is maintained in RPMI-1640 medium supplemented with 0.37 mM hypoxanthine, 25 mM HEPES, 25 mM NaHCO3, and 10% O^+ human serum together with 2-4% washed human O^+ erythrocytes. All cultures and assays are conducted under an atmosphere of 4% CO2, 3% O2 and 93% N2. Assays are performed in 96-well microtiter plates, each well containing 10 μL of the watery compound dilutions together with 190 μL of the malaria parasite inoculum (1% parasitaemia, 2% HCT). After 72 h incubation, plates are frozen and stored at −20° C. After thawing, 20 μL of each well is transferred into another plate together with 100 μL Malstat reagent and 20 μL of 1/1 mixture of PES (phenazine ethosulfate, 0.1 mg/mL) and NBT (Nitro Blue Tetrazolium Grade III, 2 mg/mL). Change in colour is measured spectrophotometrically at 655 nm. The results are expressed as % reduction in parasitaemia compared to control wells. Compounds are treated at 5 concentrations (64-16-4-1 and 0.25 μM or μg/mL).
# P. berghei ANKA = test: In vivo 4-day suppressive test in P. berghei-infected mice; set-up: species or system Plasmodium berghei; details: for reduction of the parasitemia: Plasmodium Berghei ANKA-infected CD1 mice
# Protocol: The in vivo tests in the mouse model were done according to a standard protocol (Peters et al Handbook of Animal Models of Infection; Academic Press, London, 1999; pp. 756-771). […] […] For administration, compounds were freshly prepared in 10% DMSO in sterile phosphate-buffered saline the day of use. Two hours post-infection mice received the first treatment by the intraperitoneal route. Mice were further treated on days +1-3. Blood films from tail blood were prepared on day +4, and parasitaemia was determined by microscopic examination of Giemsa-stained blood films. […] […] Mice were treated and levels of parasitemia determined as described.
# Pf H = test: microbe, parasite or virus in culture; details: Plasmodium falciparum, read-out: IC50 against Pf H
# P. falciparum 3D7 = test: microbe, parasite or virus in culture; details: Plasmodium falciparum, 3D7, 48 h
# Protocol: (§4) Twelve parasite strains or isolates from a wide panel of countries (Africa (3D7), Brazil (Bre), Cambodia (K2 and K14), Cameroon (FCM29), Djibouti (Vol1), the Gambia (FCR3), Indochina (W2), Niger (L1), Senegal (8425), Sierra Leone (D6), and Uganda (PA)) were maintained in culture in RPMI 1640 (Invitrogen, Paisley, United Kingdom), supplemented with 10% human serum (Abcys S.A. Paris, France) and buffered with 25 mM HEPES and 25 mM NaHCO3. Parasites were grown in A-positive human blood under controlled atmospheric conditions that consists of 10% O2, 5% CO2 and 85% N2 at 37° C. with a humidity of 95%.
# (§5) FQ and synthetic compounds were resuspended and then diluted in RPMI-DMSO (99 v/1 v) to obtain final concentration ranged from 0.125 to 500 nM. […]
# (§6) For in vitro isotopic microtests, 25 μL/well of antimalarial drug and 200 μL/well of the parasitized red blood cell suspension (final parasitemia, 0.5%; final hematocrit, 1.5%) were distributed into 96 well plates. Parasite growth was assessed by adding 1 μCi of tritiated hypoxanthine with a specific activity of 14.1 Ci/mmol (Perkin-Elmer, Courtaboeuf, France) to each well at time zero. […] Radioactivity incorporated by the parasites was measured with a scintillation counter (Top Count; Perkin-Elmer).
# (§7) The IC50 value was determined by non-linear regression analysis of log-based dose-response curves (Riasmart™, Packard, Meriden, USA).
# P. falciparum FCM29 = test: microbe, parasite or virus in culture; details: Plasmodium falciparum, 48 h
# Protocol: as §4, §5, §6, §7
# methemoglobin(Fe3+) = methemoglobin(Fe3+) (Homo sapiens, UniProt P68871+P69905); test: Redox-cycling of methemoglobin(Fe3+) into oxyhemoglobin(Fe2+) with NADPH/GR system; format: biochemical; details: 100 μM MetHb, NADPH, human GR
# Description: Since FPIX(Fe^2+) is an inhibitor of hematin polymerization, compounds displaying the ability to reduce FPIX(Fe^3+) into FPIX(Fe^2+) might synergistically contribute with GR inhibition to increased oxidative stress in infected-red blood cells. To evaluate the redox-cycling activity of FPIX(Fe^3+) into FPIX(Fe^2+) we set up an assay using the naphthoquinone, the glutathione reductase/NADPH-based system to regenerate the dihydronaphthoquinone continuously and methemoglobin(Fe^3+) (MetHb). The UV-spectrum of MetHb between 300 nm and 700 nm is characterized by a maximal absorbance at 405 nm and a broad band centered at around 630 nm. […] We used 20 μM methylene blue as positive control of this redox-cycling activity.
# In an Eppendorf tube containing 6.4 mg MetHb dissolved in 885 μL GR buffer (47 mM potassium phosphate buffer pH 6.9, 200 mM KCl, 100 mM EDTA), 10 μL 20 mM P_TM25 dissolved in DMSO and 100 μL NADPH dissolved in GR buffer were added. The reaction was started by the addition of 5 μL human GR and then incubated at 37° C. In a 1 mL cuvette 20 μL of the reaction mixture was diluted with 980 μL GR buffer and a UV-spectra between 300 nm and 700 nm was done after 5 min, 10 min, 20 min and 30 min incubation time. The final concentrations in the reaction mixture were 100 μM MetHb, 200 μM P_TM25, 400 μM NADPH and […] hGR, final DMSO concentration 1%.
# Spectra were measured after 5 min (blue), 10 min (black), 20 min (green) and 30 min (red).
# [7] = molecular target: T2, P. falciparum glutathione reductase (PfGR); details: menadione reference, Bauer et al 2006; cited from earlier work
# [8] = molecular target: T1, human glutathione reductase (hGR); details: menadione reference, Bauer et al 2006; cited from earlier work
# [9] = molecular target: T2, P. falciparum glutathione reductase (PfGR); details: menadione against PfGR, Biot et al 2004; cited from earlier work
# T2 sequence (Q94655 2-500 limits assumed): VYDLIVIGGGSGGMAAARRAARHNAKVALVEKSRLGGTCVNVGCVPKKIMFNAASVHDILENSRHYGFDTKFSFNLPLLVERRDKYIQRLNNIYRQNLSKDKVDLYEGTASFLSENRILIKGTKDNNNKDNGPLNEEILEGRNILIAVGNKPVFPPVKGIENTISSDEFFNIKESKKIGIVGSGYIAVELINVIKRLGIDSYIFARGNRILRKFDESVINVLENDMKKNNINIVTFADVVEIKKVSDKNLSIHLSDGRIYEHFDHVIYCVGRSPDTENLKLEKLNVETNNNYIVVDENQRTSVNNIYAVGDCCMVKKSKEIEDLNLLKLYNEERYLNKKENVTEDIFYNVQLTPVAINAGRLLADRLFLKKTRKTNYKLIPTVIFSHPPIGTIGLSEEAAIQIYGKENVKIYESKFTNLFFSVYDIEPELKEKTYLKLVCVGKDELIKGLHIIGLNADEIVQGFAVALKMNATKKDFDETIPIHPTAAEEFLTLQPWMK
# Chain of methemoglobin(Fe3+) (P69905 2-142 limits assumed): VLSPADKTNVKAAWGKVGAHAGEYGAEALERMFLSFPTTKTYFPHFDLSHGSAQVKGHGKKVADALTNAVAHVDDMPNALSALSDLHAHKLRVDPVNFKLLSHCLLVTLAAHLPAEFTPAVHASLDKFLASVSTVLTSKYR
# Chain of methemoglobin(Fe3+) (P68871 2-147 limits assumed): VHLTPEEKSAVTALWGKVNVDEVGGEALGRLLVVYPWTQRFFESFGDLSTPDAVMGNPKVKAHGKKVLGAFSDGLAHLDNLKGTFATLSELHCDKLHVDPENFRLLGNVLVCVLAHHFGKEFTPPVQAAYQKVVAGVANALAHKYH
smiles,measurement,setting,value
"CC1=C(C(O)c2ccc(Br)cc2)C(=O)c2ccccc2C1=O (centres unmarked) [P_TM23, 2-[(4-Bromo-phenyl)-hydroxy-methyl]-3-methyl-[1,4]naphthoquinone]",IC50,[1],1.3 µM
same,substrate behaviour from catalytic efficiencies kcat/KM,[2],very effective substrates
same,melting point,,61 to 62 °C
same,IC50,[3],4.5 µM
"CCN(CC)CCCC(C)Nc1ccnc2cc(Cl)ccc12 (centres unmarked) [chloroquine, reference compound]",IC50,[4],0.291 µM
same,IC50,[5],~0.02 µM
same,IC50,[6],~1 µM
same,IC50,Pf-GHA,0.05 µM
same,reduction of the parasitemia,P. berghei ANKA; 1.0 mg/kg,2.5%
same,reduction of the parasitemia,P. berghei ANKA; 3.0 mg/kg,16.6%
same,inhibition of parasitaemia,P. berghei ANKA; 10 mg/kg i.p.,98.9%
same,reduction of the parasitemia,P. berghei ANKA; 10.0 mg/kg,94.9%
same,inhibition of parasitaemia,"P. berghei ANKA; p.o. at 10 mg/kg/day, positive control",complete inhibition
same,IC50,Pf H,0.217 µM
same,IC50,P. falciparum 3D7; read-out: IC50 against strain 3D7,0.0213 µM
same,IC90,P. falciparum 3D7; read-out: IC90 against strain 3D7,0.0404 µM
same,IC50,P. falciparum FCM29; read-out: IC50 against strain FCM29,0.879 µM
same,IC90,P. falciparum FCM29; read-out: IC90 against strain FCM29,1.24 µM
CC1=CC(=O)c2ccccc2C1=O [menadione],concentration at which the shift of maximal absorbance of MetHb from 405 to 410 nm starts being visible,methemoglobin(Fe3+),50 µM
same,IC50,[7],42 µM
same,IC50,[8],27.5 µM
same,Km,[9],82.2 µM
same,kcat,[9],0.16 s⁻¹
